Source: ChEMBL document CHEMBL4732195, “Promising hit compounds against resistant trichomoniasis: Synthesis and antiparasitic activity of 3-(ω-aminoalkoxy)-1-benzyl-5-nitroindazoles” (Bioorg Med Chem Lett, 2021)

Experiments:
Trichomonas vaginalis [1] = experiment: Antimicrobial activity against Trichomonas vaginalis JH31A#4 trophozoites assessed as reduction in parasitic growth incubated for 24 hrs by resazurin dye based fluorescence assay; type: functional, organism-based; conditions: JH31A#4, 24 h
[2] = Selectivity index, ratio of CC50 for African green monkey Vero cells to IC50 for Trichomonas vaginalis IR78 trophozoites; type: toxicity; conditions: read-out: Ratio CC50/IC50
Trichomonas vaginalis [3] = experiment: Antimicrobial activity against Trichomonas vaginalis IR78 trophozoites assessed as reduction in parasitic growth incubated for 24 hrs by resazurin dye based fluorescence assay; type: functional, organism-based; conditions: IR78, 24 h
[4] = Cytotoxicity against African green monkey Vero cells; type: cell-based; conditions: chlorocebus sabaeus
[5] = Selectivity index, ratio of CC50 for African green monkey Vero cells to IC50 for Trichomonas vaginalis JH31A#4 trophozoites; type: toxicity; conditions: read-out: Ratio CC50/IC50

Structure (SMILES)	IC50 (Trichomonas vaginalis [1]) [µM]	selectivity ratio [2]	IC50 (Trichomonas vaginalis [3]) [µM]	CC50 [4] [µM]	selectivity ratio [5]
CN(C)CCOc1nn(Cc2ccccc2)c2ccc([N+](=O)[O-])cc12	207	–	–	–	–
O=[N+]([O-])c1ccc2c(c1)c(OCCCCCBr)nn2Cc1ccccc1	> 300	–	–	–	–
CN(C)CCCCCOc1nn(Cc2ccccc2)c2ccc([N+](=O)[O-])cc12	6.5	0.94	55.9	52.3	8
CNCCOc1nn(Cc2ccccc2)c2ccc([N+](=O)[O-])cc12	16.3	2.3	74.7	171	10.5
O=C1c2ccccc2C(=O)N1CCCOc1nn(Cc2ccccc2)c2ccc([N+](=O)[O-])cc12	70.3	–	–	–	–
O=C1c2ccccc2C(=O)N1CCOc1nn(Cc2ccccc2)c2ccc([N+](=O)[O-])cc12	282	–	–	–	–
NCCCCCOc1nn(Cc2ccccc2)c2ccc([N+](=O)[O-])cc12	4.2	1	59.1	57.7	13.7
O=[N+]([O-])c1ccc2c(c1)c(OCCCCCN1CCCCC1)nn2Cc1ccccc1	69	–	–	–	–
O=[N+]([O-])c1ccc2c(c1)c(OCCN1CCCCC1)nn2Cc1ccccc1	265	–	–	–	–
CNCCCCCOc1nn(Cc2ccccc2)c2ccc([N+](=O)[O-])cc12	2.5	48	0.5	24	9.6
O=[N+]([O-])c1ccc2c(c1)c(OCCCN1CCCCC1)nn2Cc1ccccc1	104	–	–	–	–
NCCCOc1nn(Cc2ccccc2)c2ccc([N+](=O)[O-])cc12	19.2	35.6	1.3	46.3	2.4
O=[N+]([O-])c1ccc2c(c1)c(OCCBr)nn2Cc1ccccc1	> 300	–	–	–	–
CN(C)CCCOc1nn(Cc2ccccc2)c2ccc([N+](=O)[O-])cc12	63.7	–	–	–	–
NCCOc1nn(Cc2ccccc2)c2ccc([N+](=O)[O-])cc12	10.5	> 21	14.3	> 300	> 28.6
Cc1ncc([N+](=O)[O-])n1CCO [METRONIDAZOLE]	1.7	> 100	3	> 300	> 176
